The values below come from US8518889B2, “Method of treating cancer with antibodies against long-form leukotriene B4 receptor BLT2” (Korea University Research & Business Foundation, priority 2007, dated 2013).

In assay [1] the test system is MCF-7 cells. Particulars: LY255283 10 μM, epirubicin 100 ng/ml.
For assay [2], the system named is human pancreatic cancer cells. Particulars: cited from earlier work.

Take `COc1cccc2c1C(=O)c1c(O)c3c(c(O)c1C2=O)C[C@@](O)(C(=O)CO)C[C@@H]3O[C@H]1C[C@H](N)[C@@H](O)[C@H](C)O1` [Epirubicin]: the “DNA fragmentation / cell death” value in assay [1] is listed as “only tiny increase in cell death”.

For the compound `CCCc1c(OCCCOc2cc(O)c(-c3ccc(F)cc3)cc2CC)cccc1Oc1ccccc1C(=O)O` [LY293111], the “growth and apoptosis of human pancreatic cancer cells” value in assay [2] was “inhibited the growth of and induced apoptosis of”.
